In patent publication US7750017B2, “Heterocycles” (Bayer Schering Pharma Aktiengesellschaft, priority 2004, dated 2010) one finds IC50 data, which are given here for 27 compounds.

The subject of assay [1] is A431 cells [human epidermoid carcinoma, overexpressing HER1 (EGFR, ErbB1)]. Nature of the assay: In vitro tumor cell proliferation assay (Cell Titer-Glo luminescent cell viability), A431 cells. The format is cell-based. Particulars: A-431, 72 h, 72 hours of drug exposure, Cell Titer-Glo readout, read-out: IC50, anti-proliferative activity in A431 cells. For orientation: In ATP-based viability assays light output follows the ATP content of the culture.

Assay [2] has as its system BT474 [human breast carcinoma, overexpressing HER2 (ErbB2)]. Description: In vitro tumor cell proliferation assay (Cell Titer-Glo luminescent cell viability), BT474 cells. The class given is cell-based. Particulars: BT-474, 72 h, 72 hours of drug exposure, Cell Titer-Glo readout, read-out: IC50, anti-proliferative activity in BT474 cells.

Where a name gives a salt, the structure may show the parent alone.

As a reminder, the IC50 is the concentration needed to halve the response being measured. With `CN1CCN(C(=O)CCc2ccc3c(c2)sc2ncnc(Nc4ccc(OCc5cccc(F)c5)c(Cl)c4)c23)CC1` [Example 66, N-{3-chloro-4-[(3-fluorobenzyl)oxy]phenyl}-7-[3-(4-methylpiperazin-1-yl)-3-oxopropyl][1]benzothieno[2,3-d]pyrimidin-4-amine], the IC50 in assay [1] is at most 50 µM; in assay [2], at most 5 µM.
For `O=C(Cc1ccc2c(c1)sc1ncnc(Nc3ccc(OCc4cscn4)c(Cl)c3)c12)NCCN1CCOCC1` [Example 140, 2-(4-{[3-chloro-4-(1,3-thiazol-4-ylmethoxy)phenyl]amino}[1]benzothieno[2,3-d]pyrimidin-7-yl)-N-(2-morpholin-4-ylethyl) acetamide] the same measures were at most 50 µM and at most 5 µM.
Consider `O=C(Cc1ccc2c(c1)sc1ncnc(Nc3ccc(OCc4ccccn4)c(Cl)c3)c12)N1CCC[C@@H]1CO` [Example 108, {1-[(4-{[3-chloro-4-(pyridin-2-ylmethoxy)phenyl]amino}[1]benzothieno[2,3-d]pyrimidin-7-yl)acetyl]pyrrolidin-2-yl}methanol], for which the IC50 in assay [1] and in assay [2] was at most 5 µM each time.
In the case of `OC/C=C/c1ccc2c(c1)sc1ncnc(Nc3ccc(OCc4cccc(F)c4)c(Cl)c3)c12` [Example 61, (2E)-3-[4-({3-chloro-4-[(3-fluorobenzyl)oxy]phenyl}amino)[1]benzothieno[2,3-d]pyrimidin-7-yl]prop-2-en-1-ol], the IC50 in assay [1] was at most 50 µM; in assay [2], at most 0.5 µM.
For `OC[C@@H](O)c1ccc2c(c1)sc1ncnc(Nc3ccc(OCc4cccc(F)c4)c(Cl)c3)c12` [Example 26, (1S)-1-[4-({3-chloro-4-[(3-fluorobenzyl)oxy]phenyl}amino)[1]benzothieno[2,3-d]pyrimidin-7-yl]ethane-1,2-diol] the same measures were at most 5 µM and at most 0.5 µM.
Take `CN(C)CCNC(=O)Cc1ccc2c(c1)sc1ncnc(Nc3ccc(OCc4cscn4)c(Cl)c3)c12` [Example 142, 2-(4-{[3-chloro-4-(1,3-thiazol-4-ylmethoxy)phenyl]amino}[1]benzothieno[2,3-d]pyrimidin-7-yl)-N-[2-(dimethylamino)ethyl] acetamide]: the IC50 is at most 50 µM in assay [1] and at most 0.5 µM in assay [2].
With `[O-][S+]1CCN(CCc2ccc3c(c2)sc2ncnc(Nc4ccc(OCc5cccc(F)c5)c(Cl)c4)c23)CC1` [Example 19, N-{3-chloro-4-[(3-fluorobenzyl)oxy]phenyl}-7-[2-(1-oxidothiomorpholin-4-yl)ethyl][1] benzothieno[2,3-d]pyrimidin-4-amine], the IC50 in assay [1] was at most 50 µM; in assay [2], at most 5 µM.
Regarding `COCCCNc1ccc2c(c1)sc1ncnc(Nc3ccc(OCc4ccccn4)c(Cl)c3)c12` [Example 79, N4-[3-chloro-4-(pyridin-2-ylmethoxy)phenyl]-N7-(3-methoxypropyl)[1]benzothieno [2,3-d]pyrimidine-4,7-diamine trifluoroacetate], the IC50 is at most 50 µM in assay [1] and at most 5 µM in assay [2].
Consider `O=C(Cc1ccc2c(c1)sc1ncnc(Nc3ccc(OCc4cscn4)c(Cl)c3)c12)N1CCOCC1` [Example 137, N-[3-chloro-4-(1,3-thiazol-4-ylmethoxy)phenyl]-7-(2-morpholin-4-yl-2-oxoethyl)[1]benzothieno [2,3-d]pyrimidin-4-amine], for which the results for the IC50 in assay [1] and in assay [2] were at most 50 µM and at most 5 µM, respectively.
In the case of `OC[C@H](O)[C@@H](O)c1ccc2c(c1)sc1ncnc(Nc3ccc(OCc4cccc(F)c4)c(Cl)c3)c12` [Example 63, (1S,2S)-1-[4-({3-chloro-4-[(3-fluorobenzyl)oxy]phenyl}amino) [1]benzothieno[2,3-d]pyrimidin-7-yl]propane-1,2,3-triol], the IC50 was at most 5 µM in assay [1] and at most 0.5 µM in assay [2].
On to `OCCc1ccc2c(c1)sc1ncnc(Nc3ccc4c(ccn4Cc4ccccc4)c3)c12` [Example 133, 2-{4-[(1-benzyl-1H-indol-5-yl)amino][1]benzothieno[2,3-d]pyrimidin-7-yl}ethanol], for which the IC50 in assay [1] was at most 50 µM; in assay [2], at most 0.5 µM.
For `CN1CCN(C(=O)/C=C/c2ccc3c(c2)sc2ncnc(Nc4ccc(OCc5cccc(F)c5)c(Cl)c4)c23)CC1` [Example 51, N-{3-chloro-4-[(3-fluorobenzyl)oxy]phenyl}-7-[(1E)-3-(4-methylpiperazin-1-yl)-3-oxoprop-1-en-1-yl][1]benzothieno [2,3-d]pyrimidin-4-amine], in that order: at most 5 µM and at most 5 µM.
For `O=C(Cc1ccc2c(c1)sc1ncnc(Nc3ccc(OCc4ccccn4)c(Cl)c3)c12)NCCOCCO` [Example 98, 2-(4-{[3-chloro-4-(pyridin-2-ylmethoxy)phenyl]amino}[1]benzothieno[2,3-d]pyrimidin-7-yl)-N-[2-(2-hydroxyethoxy)ethyl] acetamide], the results for the IC50 in assay [1] and in assay [2] were at most 50 µM and at most 5 µM, respectively.
With `CN(C)CCNC(=O)/C=C/c1ccc2c(c1)sc1ncnc(Nc3ccc(OCc4cccc(F)c4)c(Cl)c3)c12` [Example 54, (2E)-3-[4-({3-chloro-4-[(3-fluorobenzyl)oxy]phenyl}amino) [1]benzothieno[2,3-d]pyrimidin-7-yl]-N-[2-(dimethylamino)ethyl]acrylamide], the IC50 in assay [1] was at most 50 µM; in assay [2], at most 5 µM.
For `O=C(Cc1ccc2c(c1)sc1ncnc(Nc3ccc(OCc4ccccn4)c(Cl)c3)c12)N1CCOCC1` [Example 95, N-[3-chloro-4-(pyridin-2-ylmethoxy)phenyl]-7-(2-morpholin-4-yl-2-oxoethyl)[1]benzothieno[2,3-d]pyrimidin-4-amine], in that order: at most 50 µM and at most 5 µM.
Turning to `Fc1cccc(COc2ccc(Nc3ncnc4sc5cc(N6CCOCC6)ccc5c34)cc2Cl)c1` [Example 44, [3-Chloro-4-(3-fluoro-benzyloxy)-phenyl]-(7-morpholin-4-yl-benzo[4,5]thieno[2,3-d]pyrimidin-4-yl)-amine], the IC50 is at most 50 µM in assay [1] and at most 0.5 µM in assay [2].
Take `O=C(Cc1ccc2c(c1)sc1ncnc(Nc3ccc(OCc4cccc(F)c4)c(Cl)c3)c12)NCCOCCO` [Example 29, 2-[4-({3-chloro-4-[(3-fluorobenzyl)oxy]phenyl}amino)[1]benzothieno[2,3-d]pyrimidin-7-yl]-N-[2-(2-hydroxyethoxy)ethyl] acetamide]: the IC50 in assay [1] is at most 5 µM; in assay [2], at most 0.5 µM.
Consider `Clc1cc(Nc2ncnc3sc4cc(N5CCOCC5)ccc4c23)ccc1OCc1ccccn1` [Example 76, N-[3-chloro-4-(pyridin-2-ylmethoxy)phenyl]-7-morpholin-4-yl[1]benzothieno[2,3-d]pyrimidin-4-amine trifluoroacetate], for which the concentration for half-maximal inhibition (IC50) in assay [1] is at most 50 µM; in assay [2], at most 0.5 µM.
Take `OCCc1ccc2c(c1)sc1ncnc(Nc3ccc4c(cnn4Cc4cccc(F)c4)c3)c12` [Example 127, 2-(4-{[1-(3-fluorobenzyl)-1H-indazol-5-yl]amino}[1]benzothieno [2,3-d]pyrimidin-7-yl)ethanol]: the IC50 was at most 5 µM in assay [1] and at most 0.5 µM in assay [2].
For `Fc1cccc(Cn2ncc3cc(Nc4ncnc5sc6cc(CCN7CCOCC7)ccc6c45)ccc32)c1` [Example 129, N-[1-(3-fluorobenzyl)-1H-indazol-5-yl]-7-(2-morpholin-4-ylethyl) [1]benzothieno[2,3-d]pyrimidin-4-amine], in that order: at most 5 µM and at most 0.5 µM.
`O=C(Cc1ccc2c(c1)sc1ncnc(Nc3ccc(OCc4cscn4)c(Cl)c3)c12)NCCOCCO` [Example 145, 2-(4-{[3-chloro-4-(1,3-thiazol-4-ylmethoxy)phenyl]amino}[1]benzothieno[2,3-d]pyrimidin-7-yl)-N-[2-(2-hydroxyethoxy)ethyl] acetamide]: the IC50 in assay [1] is at most 50 µM; in assay [2] it was at most 5 µM.
Turning to `CN(C)CCNC(=O)Cc1ccc2c(c1)sc1ncnc(Nc3ccc4c(cnn4Cc4cccc(F)c4)c3)c12` [Example 126, N-[2-(dimethylamino)ethyl]-2-(4-{[1-(3-fluorobenzyl)-1H-indazol-5-yl]amino}[1]benzothieno[2,3-d]pyrimidin-7-yl)acetamide], the IC50 in assay [1] is at most 5 µM; in assay [2], at most 0.5 µM.
With `CCN1CCN(C(=O)/C=C/c2ccc3c(c2)sc2ncnc(Nc4ccc(OCc5cccc(F)c5)c(Cl)c4)c23)CC1` [Example 49, N-{3-chloro-4-[(3-fluorobenzyl)oxy]phenyl}-7-[(1E)-3-(4-ethylpiperazin-1-yl)-3-oxoprop-1-en-1-yl][1]benzothieno[2,3-d]pyrimidin-4-amine], the IC50 in assay [1] and in assay [2] was at most 5 µM each time.
For the compound `CCOC(=O)Cc1ccc2c(c1)sc1ncnc(Nc3ccc(OCc4cscn4)c(Cl)c3)c12` [Example 134, ethyl (4-{[3-chloro-4-(1,3-thiazol-4-ylmethoxy)phenyl]amino}[1]benzothieno[2,3-d]pyrimidin-7-yl)acetate], the IC50 was at most 50 µM in assay [1] and at most 5 µM in assay [2].
As to `CCNCCc1ccc2c(c1)sc1ncnc(Nc3ccc(OCc4ccccn4)c(Cl)c3)c12` [Example 90, N-[3-chloro-4-(pyridin-2-ylmethoxy)phenyl]-7-[2-(ethylamino)ethyl][1]benzothieno [2,3-d]pyrimidin-4-amine trifluoroacetate], the values for the IC50 in assay [1] and in assay [2] were at most 5 µM and at most 0.5 µM, respectively.
`Fc1cccc(COc2ccc(Nc3ncnc4sc5cc(OCCN6CCCC6)ccc5c34)cc2Cl)c1` [Example 41, N-{3-chloro-4-[(3-fluorobenzyl)oxy]phenyl}-7-(2-pyrrolidin-1-ylethoxy)[1] benzothieno[2,3-d]pyrimidin-4-amine]: the IC50 in assay [1] is at most 5 µM; in assay [2], at most 0.5 µM.
For the compound `OCC(O)c1ccc2c(c1)sc1ncnc(Nc3ccc(OCc4ccccn4)c(Cl)c3)c12` (racemic) [Example 73, 1-(4-{[3-chloro-4-(pyridin-2-ylmethoxy)phenyl]amino}[1]benzothieno[2,3-d]pyrimidin-7-yl)ethane-1,2-diol], the results for the IC50 in assay [1] and in assay [2] were at most 5 µM and at most 0.5 µM, respectively.
